Measured values published in patent US6451334B2, “Compositions and administration of compositions for the treatment of blood disorders” (priority 1997, dated 2002).
“Also recorded” adds a separate entry of the source. Read-outs that look alike come from different tables or passages of the source.

Experiments:
[1] = system: K562 cells; assay: Treatment of K562 cells and analysis of globin mRNA by primer extension; format: cell-based, human; settings: for fold induction at 1000 µM: Homo sapiens, K562, 72 h, read-out: increase in γ-globin mRNA over constitutive levels in untreated control K562 cells; for stimulating γ globin compared to control cells (ranking in words) / Radioactivity Alpha Globin (α) mRNA / Radioactivity Fetal Globin (γ) mRNA / γ/α: K562 cells; for pattern of globin gene stimulation in K562 cells: α and γ globin mRNA; for Radioactivity Alpha Globin (α) mRNA / Radioactivity Fetal Globin (γ) mRNA: phosphorimager; for γ/α: ratio of globin mRNA radioactivity
Method: K562 cells kindly provided by Dr. George Atweh were cultured with 10% fetal bovine serum (Sigma, St. Louis, Mo.) and RPMI media (Grand Island Biological Company, Grand Island, N.Y.) in a humidified atmosphere with 5% CO2/95% air. Compounds were tested at a final concentration of 1 mM at neutral pH and included butyric acid, phenoxyacetic acid, dimethylbutric acid, alpha-methylhydrocionamic acid, 2,3, and 4-methoxyhydrocinnamic acid, dihydrocinnamic acid, methoxycinnamic acid, methoxyacetic acid, phenylpropionic acid, amino hydrocinnamic acid, DL β- and DL-βamino-n-butyric acid, cinnamic acid, and 2 methylhydrocinnamic acid (Aldrich Chemical Company, St. Louis, Mo.). Additional compounds studied included dimethylhydroxy acetic acid, dimethylpropionic acid, dimethylphenoxyacetic acid, and dimethylmethoxyacetic acid. After three days of culture with these agents, mRNA was purified and α, β, and γ globin mRNA was analyzed by primer extension using oligonucleotide primers and quantitation on a PhosphoImager as previously described.

[2] = system: 32D cells; assay: Proliferation studies using 32D cells at low IL-3; format: cell-based, murine; settings: 0.5 U/ml IL-3, 1 mM; listed as butyrate
Method: 32D cells were cultured in RPMI media with 10% fetal bovine serum (Sigma, St. Louis, Mo.), […] glutamine (GIBCO), and murine IL3 (20 U/ml) (Biosource International). Growth factor controls used included the standard concentration of IL-3 required for proliferation of these cells (25 U/ml) and a 50-fold lower concentration (0.5 U/ml), and erythropoietin (3 U/ml) or G-CSF ( U/ml), (Amgen, Thousand Oaks, Calif.). The test compounds were added at final concentrations of 1 mM. As a cell density of 2.5−10×10^5 is necessary for growth of this cell line, this density was maintained by passing the cells at three day intervals or by concentrating the cells when apoptosis occurred. Proportions of cells which were viable or apoptotic, and the fraction of cells in each part of the cell cycle was assessed by incubating the cells with Trypan blue and enumeration, and with propidium iodide incubation and FACScan analysis as previously described.
The effects of the representative compounds which have been synthesized or selected for resistance to beta oxidative metabolism and glucuronidation in stimulating γ globin gene expression in a human erythroid-like cell line and for their effects on cell growth utilizing a multi-lineage murine hematopoietic cell line, 32D. This cell line is dependent on high concentrations of IL-3 for growth. […]

[3] = system: cell viability; assay: DNA fragmentation assays (cell viability); format: cell-based
Source text: Normal cell viability, the viability of an untransformed or uninfected cell, can be determined from analyzing the effects of the composition on one or more biological processes of the cell. Detrimental interference with one or more of these cellular processes becomes significant when the process becomes abnormal. Examples of quantitatable and qualifiable biological processes include the processes of cell division, protein synthesis, nucleic acid (DNA or RNA) synthesis, nucleic acid (principally DNA) fragmentation and apoptosis. Others processes include specific enzyme activities, the activities of the cellular transportation systems such as the transportation of amino acids by system A (neutral), system B (acidic) or system C (basic), and the expression of a cell surface protein. […] Abnormal cell division, for example, can be mitosis which occurs too rapidly, as in a malignancy, or unstably, resulting in programmed cell death or apoptosis, detected by increased DNA degradation. The determination of abnormal cell viability can be made on comparison with untreated control cells. […] Increased cell viability can be determined by those of ordinary skill in the art using, for example, DNA fragmentation analysis. […] Determinations of increased or decreased viability can also be concluded from an analysis of the results of multiple different assays. Where multiple tests provide conflicting results, accurate conclusions can still be drawn by those of ordinary skill based upon the cell type, the correctness or correlation of the tests with actual conditions and the type of composition.

[4] = system: mice transgenic for a human beta globin locus YAC containing a silenced gamma globin gene; assay: In vivo experiments in mice transgenic for the human beta globin gene locus
Method: Three prototype compounds, methylhydrocinnamic acid (MHCA), phenoxyacetic acid (PAA), and dimethylbutyric acid PMB), were administered at doses from 100 to 250 mg/kg in two daily doses by intraperitoneal injection to mice transgenic for a human beta globin locus YAC containing a silenced gamma globin gene. Reticulocytes, newly synthesized red blood cells, were counted daily and non-alpha globin in MRNA was analyzed by Rnase protection. Only 50 microliters of blood were removed daily for testing. A 5 to 10-fold increase in reticulocytes and a 1.7-2.4 fold increase in gamma globin mRNA was observed within one week of therapy with the three protype compounds. In contrast, control mice to which normal saline was administered, with the same degree of phlebotomy for testing, had no significant changes in reticulocytes or globin in mRNA.

[5] = system: system A transport of amino acids; assay: System A transport of amino acids; format: cell-based
Source text: Normal cell viability, the viability of an untransformed or uninfected cell, can be determined from analyzing the effects of the composition on one or more biological processes of the cell. Detrimental interference with one or more of these cellular processes becomes significant when the process becomes abnormal. Examples of quantitatable and qualifiable biological processes include the processes of cell division, protein synthesis, nucleic acid (DNA or RNA) synthesis, nucleic acid (principally DNA) fragmentation and apoptosis. Others processes include specific enzyme activities, the activities of the cellular transportation systems such as the transportation of amino acids by system A (neutral), system B (acidic) or system C (basic), and the expression of a cell surface protein. […] Abnormal cell division, for example, can be mitosis which occurs too rapidly, as in a malignancy, or unstably, resulting in programmed cell death or apoptosis, detected by increased DNA degradation. The determination of abnormal cell viability can be made on comparison with untreated control cells. Compositions preferably increase normal cell viability. Increased cell viability can be determined by those of ordinary skill in the art using, for example, DNA fragmentation analysis. […]

[6] = in vivo; settings: monkey, po
Method: Chronic indwelling venous and arterial catheters which were maintained using sterile technique for blood sampling. Compounds were administered by nasogastric tube and blood was collected to determine drug plasma levels at regular intervals following single oral doses. […] The test compounds were analyzed after ether extraction of the plasma, separation by HPLC, and quantitated by comparison to a spilled internal standard of heptanoic acid according to previously described methods.

[7] = system: c-myb, c-myc, actin, and histone H3; assay: Northern blots of growth related genes in 32D cells; format: cell-based, murine; settings: low IL-3, 1 mM, Northern blot
Method: Cell proliferation stimulation is transgenic mice, baboons, human cell culture, and a murine multi-lineage cell line by the active compounds, genes whose expression is increased early in cell proliferation induced by hematopoietic growth factors such as IL-3 and erythropoietin were examined. RNA was extracted from 32D cells treated with the compounds for one day and for 11 days. Northern blots were prepared with probes for the early growth related genes c-myb and c-myc and beta actin and histone H3 were used as controls. Increased expression of c-myb occurs transiently, and early, when growth is induced by erythropoietin and IL-3.
The first lane is from cells cultured in no IL-3, lane 2 in 25 U/ml murine IL3 and lanes 3-18 have low IL-3 concentration (0.5 U/ml) plus test compounds. […] All compounds were tested here at 1 mM. […] 20 ug of total RNA from each sample were subjected to Northern blot analysis using specific probes for c-myb, c-myc, actin, and histone H3. One day and 11-day samples from the same treated cells were quantitated by PhosphoImager.

[8] = system: Mononuclear cells from patients with sickle cell disease or thalassemia trait; assay: Erythroid colony (BFU-E) cultures in methylcellulose; format: cell-based, human; settings: 0.2-0.5 mM, optimal growth factors; for % Increase over control: BFU-E
Method: Mononuclear cells from patients with sickle cell disease or thalassemia trait were isolated on Ficoll Hypague, washed, and cultured in methylcellulose media with optimal concentrations of hematopoietic growth factors IL-3, GM-CSF, Stem Cell Factor, IL6, 3 U/ml Eiythropoietin, insulin, bovine serum albumin, and 0.2-0.5 mM concentrations of test compounds of derivatives of cinnamic acid and hydrocinnamic acid. […] The following illustrates some representative cultures: […]

[9] = primer extension, 1 mM, three days of culture, FIG. 1

CCCC(=O)O [Butyric acid, butyric acid, reference compound]
fold induction at 1000 µM [1, 9]: 2
stimulating γ globin compared to control cells (ranking in words) ([1]; 1 mM): most active
pattern of globin gene stimulation in K562 cells [1]: stimulated expression of both α and γ globin MRNA
effect on 32D cells with low IL-3 [2]: decreased cell proliferation and cell death; also recorded: Cells die

CC(C)C(N)=O [isobutyramide, reference compound]
cell viability / DNA fragmentation [3]: decrease cell viability

CCCC(=O)OCC [butyric acid ethyl ester]
cell viability / DNA fragmentation [3]: reduce DNA fragmentation

COc1ccc(CC(=O)O)cc1OC [ST 37, 3,4 dimethoxy phenyl acetic acid]
fold induction at 1000 µM [1, 9]: 2.4 to 26
Radioactivity Alpha Globin (α) mRNA ([1]; 1 mM): 106875
Radioactivity Fetal Globin (γ) mRNA ([1]; 1 mM): 1206529
γ/α ([1]; 1 mM): 11.3

COc1ccc(OC)c(CC(=O)O)c1 [ST 40, 2,5 {dimethoxy phenyl} acetic acid]
Radioactivity Alpha Globin (α) mRNA ([1]; 1 mM): 85941
Radioactivity Fetal Globin (γ) mRNA ([1]; 1 mM): 1240100
γ/α ([1]; 1 mM): 14.4

CCC(N)C(=O)O (stereo not drawn) [alpha amino-n-butyric acid, reference compound]
inducibility of gamma (fetal) globin in the transgenic mice ([4]; mouse, in vivo): has not been readily inducible

O=C(O)COc1ccccc1 [PAA, phenoxyacetic acid]
cell viability / DNA fragmentation [3]: reduce DNA fragmentation
system A transport of amino acids [5]: do not significantly alter
half-life [6]: 6.5 h
fold induction at 1000 µM [1]: 2.4 to 26
stimulating γ globin compared to control cells (ranking in words) ([1]; 1 mM): most active
Radioactivity Alpha Globin (α) mRNA ([1]; 1 mM): 507148
Radioactivity Fetal Globin (γ) mRNA ([1]; 1 mM): 2755891
γ/α ([1]; 1 mM): 5.4
pattern of globin gene stimulation in K562 cells [1]: stimulated expression of both α and γ globin MRNA
Reticulocytes (fold increase) ([4]; 100 to 250 mg/kg in two daily doses, intraperitoneal, within one week): 2.5 to 7 fold

NC(CC(=O)O)c1ccccc1 (stereo not drawn) [ST 30, β-aminohydrocinnamic acid]
c-myb induced [7]: 2 fold

COc1cc(C=CC(=O)O)cc(OC)c1O [ST 44, 3,5 dimethoxy 4-hydroxy cinnamic acid]
fold induction at 1000 µM [1, 9]: 2.4 to 26
Mean BFU-E/culture 4 cultures averaged (per 0.2 million cells) [8]: 215
% Increase over control [8]: 11%

COc1ccccc1/C=C\C(=O)O [ST 34, cis-2-methoxycinnamic acid]
fold induction at 1000 µM [1, 9]: 2.4 to 26
Radioactivity Alpha Globin (α) mRNA ([1]; 1 mM): 105452
Radioactivity Fetal Globin (γ) mRNA ([1]; 1 mM): 2255627
γ/α ([1]; 1 mM): 21.4
pattern of globin gene stimulation in K562 cells [1]: decreased expression of α globin

COc1ccc(CCC(=O)O)cc1OC [ST 38, 3-3,4-dimethoxy phenyl propionic acid]
Radioactivity Alpha Globin (α) mRNA ([1]; 1 mM): 191985
Radioactivity Fetal Globin (γ) mRNA ([1]; 1 mM): 1858358
γ/α ([1]; 1 mM): 9.7

Cc1ccccc1CCC(=O)O [ST 33, 2 methyl hydrocinnamic acid]
fold induction at 1000 µM [1, 9]: 2.4 to 26
stimulating γ globin compared to control cells (ranking in words) ([1]; 1 mM): most active
Radioactivity Alpha Globin (α) mRNA ([1]; 1 mM): 89473
Radioactivity Fetal Globin (γ) mRNA ([1]; 1 mM): 1388899
γ/α ([1]; 1 mM): 15.5
Mean BFU-E/culture 4 cultures averaged (per 0.2 million cells) [8]: 212
% Increase over control [8]: 20.5%

COc1ccc(C=CC(=O)O)cc1 [4 Methoxycinnamic acid]
Mean BFU-E/culture 4 cultures averaged (per 0.2 million cells) [8]: 191
% Increase over control [8]: 8.5%

COc1ccccc1C=CC(=O)O [ST 32, 2-methoxycinnamic acid]
fold induction at 1000 µM [1, 9]: 2.4 to 26
stimulating γ globin compared to control cells (ranking in words) ([1]; 1 mM): most active
Radioactivity Alpha Globin (α) mRNA ([1]; 1 mM): 36751
Radioactivity Fetal Globin (γ) mRNA ([1]; 1 mM): 957146
γ/α ([1]; 1 mM): 26.0

O=C(O)/C=C/c1ccccc1 [ST 47, transcinnamic acid]
fold induction at 1000 µM [1, 9]: 2.4 to 26
Mean BFU-E/culture 4 cultures averaged (per 0.2 million cells) [8]: 322
% Increase over control [8]: 18%
